Columns and labels:
ZEAMX (Corn, Field) = assay: Preemergence herbicidal evaluation; assay type: in vivo, Zea mays; settings: rated 4-5 weeks after treatment
Procedure, shortened: (§1)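 Steps: mix seeds into potting soil; plant atop ~1 inch soil; spray compound in aqueous acetone (~0.0156-0.500 kg/ha equivalent); maintain in greenhouse with watering; rate visually 0-9 versus control at 4-5 weeks.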

[1] = tested on: TRZAWR (Wheat, Winter, cv Riband); assay: Preemergence herbicidal evaluation; assay type: in vivo, Triticum aestivum; settings: rated 4-5 weeks after treatment
Procedure, shortened: as §1

[2] = tested on: ECHORC (Watergrass (Calif.)); assay: Preemergence weed control under flooded paddy conditions; assay type: in vivo, Echinochloa oryzoides; settings: rated 3-4 weeks after treatment
Procedure, shortened: (§2)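 First, seeds or propagules go into the top 0.5 cm of silt loam; next, water is held 1.5 to 3 cm over the soil; then compound (50/50 acetone/water) is pipetted into it at about 0.0313 to 0.500 kg/ha; finally plants are rated visually 0-9 after three to four weeks.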

CYPIR (Rice Flatsedge) [3] = assay: Postemergence weed control under flooded paddy conditions; assay type: in vivo, Cyperus iria; settings: postemergence weeds, 3-4 weeks after treatment
Procedure, shortened: (§3)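 Injury ratings (0–9 scale covering stand, vigor, malformation, size, chlorosis and overall appearance versus control) were made three to four weeks after treatment. Test material, about 0.0313 to 0.500 kg/ha a.i. in 50/50 v/v aqueous/acetone, was added to flood water 1.5 to 3 cm deep over 3 to 5 cm weeds and 1.5 to 2.5 leaf rice.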

[4] = tested on: SAGPY (Arrowhead (Pygmaea)); assay: as above; assay type: in vivo, Sagittaria pygmaea; settings: postemergence weeds, 3-4 weeks after treatment
Procedure, shortened: as §3

CYPIR (Rice Flatsedge) [5] = assay: Preemergence weed control under flooded paddy conditions; assay type: in vivo, Cyperus iria; settings: rated 3-4 weeks after treatment
Procedure, shortened: as §2

ORYSAT (Rice, Tebonnet) = assay: Postemergence herbicidal evaluation; assay type: in vivo, Oryza sativa, (L.) Tebonnet; settings: postemergence
Procedure, shortened: (§4)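 Visual 0–9 rating versus control (stand, vigor, malformation, size, chlorosis, overall appearance), taken four to five weeks post-spray. Two-week-old seedlings received roughly 0.0156–0.500 kg/ha active in acetone/water (50/50) with 0.5% TWEEN 20 via nozzle at 40 psi.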

CYPSE (Flatsedge) = assay: Postemergence weed control under flooded paddy conditions; assay type: in vivo, Cyperus serotinus; settings: postemergence weeds, 3-4 weeks after treatment
Procedure, shortened: as §3

MOOVA (Monochoria) = assay: Preemergence weed control under flooded paddy conditions; assay type: in vivo, Monochoria vaginalis; settings: rated 3-4 weeks after treatment
Procedure, shortened: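 Silt loam, seeds in top 0.5 cm; flood held 1.5-3 cm; test cpd as acetone/water 50/50 into flood water, ~0.0313-0.500 kg/ha a.i.; greenhouse 3-4 wk; visual 0-9 score vs control.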

ECHCG (Barnyardgrass) = assay: Postemergence herbicidal evaluation; assay type: in vivo, Echinochloa crus-galli; settings: postemergence
Procedure, shortened: as §4

SETVI (Foxtail, Green) = assay: Postemergence herbicidal evaluation; assay type: in vivo, Setaria viridis; settings: postemergence
Procedure, shortened: as §4

GALAP (Galium) = assay: Postemergence herbicidal evaluation; assay type: in vivo, Galium aparine; settings: postemergence
Procedure, shortened: as §4

ABUTH (Velvetleaf) = assay: Postemergence herbicidal evaluation; assay type: in vivo, Abutilon theophrasti; settings: postemergence
Procedure, shortened: as §4

CN1C(=O)C(F)SC1=Nc1cc(N2C(=O)C3=C(CCCC3)C2=O)c(F)cc1Cl (centres unmarked) [Compound 5, N-{4-chloro-2-fluoro-5-[(5-fluoro-3-methyl-4-oxo-2-thiazolidinylidene)amino]phenyl}-1-cyclohexene-1,2-dicarboximide]
ZEAMX preemergence herbicidal rating (ZEAMX (Corn, Field); rate 0.0625 kg/ha): 0.0 | ZEAMX preemergence herbicidal rating (ZEAMX (Corn, Field); rate 0.1250 kg/ha): 1.0 | ZEAMX preemergence herbicidal rating (ZEAMX (Corn, Field); rate 0.2500 kg/ha): 2.0 | ZEAMX preemergence herbicidal rating (ZEAMX (Corn, Field); rate 0.5000 kg/ha): 2.0 | TRZAWR preemergence herbicidal rating ([1]; rate 0.0625 kg/ha): 0.0 | TRZAWR preemergence herbicidal rating ([1]; rate 0.1250 kg/ha): 0.0 | TRZAWR preemergence herbicidal rating ([1]; rate 0.2500 kg/ha): 1.0 | TRZAWR preemergence herbicidal rating ([1]; rate 0.5000 kg/ha): 2.0 | Herbicidal rating ECHORC ([2]; 0.1250 kg/ha): 1.0 | Herbicidal rating ECHORC ([2]; 0.2500 kg/ha): 2.0 | Herbicidal rating ECHORC ([2]; 0.5000 kg/ha): 4.0 | Herbicidal rating CYPIR (CYPIR (Rice Flatsedge) [3]; rate 0.1250 kg/ha): 0.0 | Herbicidal rating CYPIR (CYPIR (Rice Flatsedge) [3]; rate 0.2500 kg/ha): 0.0 | Herbicidal rating CYPIR (CYPIR (Rice Flatsedge) [3]; rate 0.5000 kg/ha): 0.0 | Herbicidal rating SAGPY ([4]; rate 0.1250 kg/ha): 0.0 | Herbicidal rating SAGPY ([4]; rate 0.2500 kg/ha): 0.0 | Herbicidal rating SAGPY ([4]; rate 0.5000 kg/ha): 0.0 | Herbicidal rating CYPIR (CYPIR (Rice Flatsedge) [5]; 0.1250 kg/ha): 0.0 | Herbicidal rating CYPIR (CYPIR (Rice Flatsedge) [5]; 0.2500 kg/ha): 0.0 | Herbicidal rating CYPIR (CYPIR (Rice Flatsedge) [5]; 0.5000 kg/ha): 0.0 | ORYSAT herbicidal rating (ORYSAT (Rice, Tebonnet); rate 0.0157 kg/ha): 1.5 | ORYSAT herbicidal rating (ORYSAT (Rice, Tebonnet); rate 0.0313 kg/ha): 1.5 | ORYSAT herbicidal rating (ORYSAT (Rice, Tebonnet); rate 0.0625 kg/ha): 2.5 | ORYSAT herbicidal rating (ORYSAT (Rice, Tebonnet); rate 0.1250 kg/ha): 2.5 | ORYSAT herbicidal rating (ORYSAT (Rice, Tebonnet); rate 0.2500 kg/ha): 2.5 | ORYSAT herbicidal rating (ORYSAT (Rice, Tebonnet); rate 0.5000 kg/ha): 2.5 | Herbicidal rating CYPSE (CYPSE (Flatsedge); rate 0.1250 kg/ha): 0.0 | Herbicidal rating CYPSE (CYPSE (Flatsedge); rate 0.2500 kg/ha): 0.0 | Herbicidal rating CYPSE (CYPSE (Flatsedge); rate 0.5000 kg/ha): 0.5 | Herbicidal rating MOOVA (MOOVA (Monochoria); 0.1250 kg/ha): 2.0 | Herbicidal rating MOOVA (MOOVA (Monochoria); 0.2500 kg/ha): 4.0 | Herbicidal rating MOOVA (MOOVA (Monochoria); 0.5000 kg/ha): 8.0 | ECHCG herbicidal rating (ECHCG (Barnyardgrass); rate 0.0157 kg/ha): 0.0 | ECHCG herbicidal rating (ECHCG (Barnyardgrass); rate 0.0313 kg/ha): 0.0 | ECHCG herbicidal rating (ECHCG (Barnyardgrass); rate 0.0625 kg/ha): 0.0 | ECHCG herbicidal rating (ECHCG (Barnyardgrass); rate 0.1250 kg/ha): 3.0 | ECHCG herbicidal rating (ECHCG (Barnyardgrass); rate 0.2500 kg/ha): 4.0 | ECHCG herbicidal rating (ECHCG (Barnyardgrass); rate 0.5000 kg/ha): 2.0 | SETVI herbicidal rating (SETVI (Foxtail, Green); rate 0.0157 kg/ha): 0.0 | SETVI herbicidal rating (SETVI (Foxtail, Green); rate 0.0313 kg/ha): 0.0 | SETVI herbicidal rating (SETVI (Foxtail, Green); rate 0.0625 kg/ha): 2.0 | SETVI herbicidal rating (SETVI (Foxtail, Green); rate 0.1250 kg/ha): 4.0 | SETVI herbicidal rating (SETVI (Foxtail, Green); rate 0.2500 kg/ha): 8.0 | SETVI herbicidal rating (SETVI (Foxtail, Green); rate 0.5000 kg/ha): 4.0 | GALAP herbicidal rating (GALAP (Galium); rate 0.0157 kg/ha): 0.0 | GALAP herbicidal rating (GALAP (Galium); rate 0.0313 kg/ha): 2.0 | GALAP herbicidal rating (GALAP (Galium); rate 0.0625 kg/ha): 8.0 | GALAP herbicidal rating (GALAP (Galium); rate 0.1250 kg/ha): 9.0 | GALAP herbicidal rating (GALAP (Galium); rate 0.2500 kg/ha): 9.0 | GALAP herbicidal rating (GALAP (Galium); rate 0.5000 kg/ha): 9.0 | ABUTH herbicidal rating (ABUTH (Velvetleaf); rate 0.0157 kg/ha): 1.0 | ABUTH herbicidal rating (ABUTH (Velvetleaf); rate 0.0313 kg/ha): 2.0 | ABUTH herbicidal rating (ABUTH (Velvetleaf); rate 0.0625 kg/ha): 9.0 | ABUTH herbicidal rating (ABUTH (Velvetleaf); rate 0.1250 kg/ha): 9.0 | ABUTH herbicidal rating (ABUTH (Velvetleaf); rate 0.2500 kg/ha): 9.0 | ABUTH herbicidal rating (ABUTH (Velvetleaf); rate 0.5000 kg/ha): 9.0
